Test results published in patent US20100143241A1, “Method and apparatus for delivery of agents across the blood brain barrier” (priority 2008, published 2010).

Legend:
mouse brain = experiment: T1 estimation by spin echo MRI in mice given Gd-DTPA with or without BOMUS; format: in vivo
Description: (§1) To enhance the brain with MR contrast, Gd-DTPA (Magnevist, Bayer HealthCare Pharmaceuticals, Wayne, N.J.) was administered by intraperitoneal (IP) injection 10 minutes prior to BOMUS (FIG. 14b). […] The Gd-DTPA dose was 3.2, 6.4, or 9.5 mmol/kg, as noted later. After BOMUS, high-throughput MR images were acquired. Because Gd-DTPA is normally excluded by the BBB, opening of the BBB was indicated by contrast-enhancement on T1-weighted MRI.
T1 measurements were performed by acquiring a series of 2D spin echo images with varying TRs: TR=200, 400, 800, 1600, 3200, 6400, or 12800 ms; TE=7 ms; BW=31.25; slice thickness=1 mm; FOV=20×20 mm; matrix=128×128. T1 over a region of interest (ROI) was estimated using a three-parameter non-linear fit of the data to the following equation: I=m(1−[…])+a, where I is the mean ROI intensity and TR is the repetition time. The three terms that were fit were m, a multiplicative constant; a, an additive constant; and T1.
To measure the change in relaxivity due to the Gd-DTPA, T1 was estimated in ROIs selected from the cortex, basal ganglia and muscle (FIG. 21). In the control animal receiving neither Gd-DTPA nor BOMUS, T1 values were long in the cortex (2.08 s), basal ganglia (1.97 s), and muscle (2.01 s). In the animal given only Gd-DTPA, the muscle T1 shortened dramatically (0.71 s); but T1 was only shortened modestly in the cortex (1.53 s) and basal ganglia (1.56 s) because the intact BBB excluded the Gd-DTPA. However, in the BOMUS-treated animal, Gd-DTPA not only shortened T1 in the muscle (0.80 s), but Gd-DTPA also crossed the BBB and dramatically shortened T1 in the cortex (0.50 s) and basal ganglia (0.50 s).

blood-brain barrier = experiment: T1-weighted MRI contrast enhancement of the mouse brain after BBB opening with microbubbles and unfocused ultrasound; format: in vivo; conditions: for enhancement in CSF and brain parenchyma: Gd-DTPA 6.4 mmol/kg IP
Excerpt: Magnetic resonance images were acquired of a live mouse using a 7.0 T magnetic resonance system developed for magnetic resonance microscopy. […] IV injection of gadopentetate dimeglumine a standard magnetic resonance contrast agent results in enhancement of the muscles (FIG. 2b) but the brain remains dark. […] However, application of the ultrasound energy with the combination of Definity and gadopentetate dimeglumine opens the blood-brain barrier allowing the gadopentetate dimeglumine to actively stain the brain. Note in FIG. 2d the signal from the actively stained brain is nearly 5× (i.e., 5 fold or 5 times) stronger than it is in the unstained brain in FIG. 2a.
To open the BBB, 30 microliters of perflutren lipid microspheres (activated Definity) were injected through a tail vein catheter and simultaneously the ultrasound pulse sequence was initiated. The ultrasound was applied for 3 minutes.
as §1
For MRI, a 35 mm diameter quadrature transmit/receive volume coil (m2m Imaging Corp., Cleveland, Ohio) was used. The MR system was a 7 T horizontal bore magnet driven by a GE EXCITE console (General Electric Healthcare, Milwaukee, Wis.). MR images were acquired using either a high-throughput or high-resolution protocol. The high-throughput scan (3.2 minutes) used a 3D spoiled gradient recalled (SPGR) sequence with the following parameters: repetition time (TR)=25 ms; echo time (TE)=2 ms; flip angle (FA)=30 degrees; field of view (FOV)=20×20×12 mm; matrix=128×128×60; number of averages (NEX)=1. Data were acquired at a resolution of 156×156×200 micrometers.
High-resolution images were acquired with a similar 51 minute SPGR protocol: TR=25 ms; TE=3-4 ms; FA=15-22 degrees; FOV=20×20×8 mm; matrix=384×384×80; NEX=4. Data were acquired at a resolution of 52×52×100 micrometers.
To determine if the combination of unfocused ultrasound and microbubbles could be used to globally open the BBB, this treatment was compared to a variety of control scenarios (FIG. 16). […] However, co-administration of ultrasound and microbubbles globally opens the BBB, allowing the Gd-DTPA to enhance the brain. Animals received Gd-DTPA 6.4 mmol/kg IP 10 minutes prior to treatment, and T1-weighted images (high-throughput protocol) were acquired 20 minutes after treatment (FIG. 14b).

[1] = in vivo; cited from earlier work
[2] = BOMUS-treated animal given Gd-DTPA
[3] = animal given only Gd-DTPA, no BOMUS, intact BBB
[4] = Gd-DTPA along with BOMUS, high-resolution SPGR, left anterior cortex

For `CNC[C@H](O)[C@@H](O)[C@H](O)[C@H](O)CO.CNC[C@H](O)[C@@H](O)[C@H](O)[C@H](O)CO.O=C([O-])CN(CCN(CC(=O)[O-])CC(=O)O)CCN(CC(=O)[O-])CC(=O)O.[Gd+3]` [Gd-DTPA, gadopentetate dimeglumine], the “T1 in basal ganglia” value (mouse brain; [2]) was 0.50 s, the T1 in cortex (mouse brain; [2]) was 0.50 s and the T1 in muscle (mouse brain; [2]) was 0.80 s. For the same molecule, the “T1 of brain after active staining” value (mouse brain; Gd-DTPA with BOMUS, reduced from approximately 2000 ms) was ~500 ms, the T1 in muscle (mouse brain; animal given only Gd-DTPA, no BOMUS) was 0.71 s and the “T1 in basal ganglia” value (mouse brain; [3]) was 1.56 s. The T1 in cortex (mouse brain; [3]) was 1.53 s, the “enhancement in CSF and brain parenchyma” value (blood-brain barrier; both ultrasound and microbubbles simultaneously) was “dramatic enhancement in the CSF and brain parenchyma” and the “enhancement in CSF and brain parenchyma” value (blood-brain barrier; no treatment, only ultrasound, or only microbubbles) was “no enhancement in the cerebrospinal fluid (CSF) or in the brain parenchyma”. The “increase in SNR over control mouse receiving no contrast agent” value (blood-brain barrier; [4]) was 90%, the “increase in SNR over mouse receiving only Gd-DTPA” value (blood-brain barrier; [4]) was 63% and the “time post-injection within which most of the enhancement occurs” value (blood-brain barrier; IP injection, preliminary studies) was 10 to 15 min. For the same molecule, the “wash-out of brain staining after BOMUS” value (blood-brain barrier; time-course of T1-weighted signal, up to 27 hours after BOMUS) was “washes out within a day”, the “signal of actively stained brain relative to unstained brain” value (blood-brain barrier; ultrasound with Definity and gadopentetate dimeglumine, 7.0 T, T1-weighted, FIG. 2) was ~5 × and the half-life [1] was 1.6 h.
